Test results: article PMC7073916, “Potential Tools for Eradicating HIV Reservoirs in the Brain: Development of Trojan Horse Prodrugs for the Inhibition of P-Glycoprotein with Anti-HIV-1 Activity” (Journal of Medicinal Chemistry, 2019)
Where two headings read alike, the source gives them in different places.

Experiments:
P-gp [1] = conditions: cited from earlier work
[2] = Stability of prodrugs in PBS and cell culture media; type: physicochemical; conditions: 37 °C
Description: (§1) To investigate if Aba-S2-NFV1 and Aba-S2-DRV8 are effective against HIV-1 in cells, an in vitro HIV-1 titer assay was performed using the 12D7 cell line. 12D7 cells were infected with HIV-1LAI, and anti-HIV-1 activity was measured by monitoring p24 protein levels as previously described.[45],[46] First the stability of the prodrugs was monitored in PBS and cell culture media using UPLC–MS. […] Therefore, for the cell-based anti-HIV-1 experiments, the medium, with drugs, was changed every 3 days. […] (Figure 2). […] Thus, this difference in chemical connectivity leads to a difference in monomer release that may be responsible for the differences in anti-HIV-1 potency.
The cell media stability studies for the TH heterodimers (Aba-S2-NFV1 or Aba-S2-DRV8) were carried out following a previously published protocol with some modifications.[32] Heterodimers (100 μM) were incubated at 37 °C in the cell medium used for 12D7 cells (complete RPMI 1640 medium with 50 units/mL of penicillin and 50 μg/mL streptomycin, 5 mM of L-glutamine, and 10% FBS) with 1% DMSO. Every 24 h ice-cold acetonitrile with 4-methoxybenzyl alcohol (1.0 mM) was added to an aliquot of the reaction mixture (1:1). The resultant solution was vortexed for 1 min, sonicated for 10 min, and centrifuged twice at 10 000g for 10 min each. The supernatant was stored at −80 °C. All samples were analyzed using a C8 analytical column (Phenomenex, USA) on RP-HPLC with eluent consisting of solvent A (water and 0.05% TFA) and solvent B (acetonitrile and 0.05% TFA). A gradient of 15–75% solvent B over 30 min with a flow rate of 1.2 mL/min and UV detection at 254 nm was used. The assays were performed in duplicate.

HIV-1LAI = assay: HIV-1 cell inhibition assay (p24 ELISA) in infected 12D7 cells; type: cell-based; conditions: HIV-1LAI infected 12D7 cells; 6 days; medium with drug changed after 3 days; Figure 2
Description: as §1
12D7 cells were grown in the identical medium for the cell culture medium stability studies. The cells in log-phase were pelleted and resuspended at 1 million cells per mL. 500 TCID50 HIV-1LAI was used to infect cells for 4 h using a known procedure.[45] These infected cells were plated at a density of 75 000 cells per mL in 48-well plates after three washes with the medium. Different concentrations of the compound of interest were added keeping the DMSO concentration at 0.05%. […] On the sixth day, the supernatant was analyzed using ELISA to quantify the amount of HIV-1 p24 (gag) protein generated in each sample.[46] […]

P-gp [3] = molecular target: T1, P-gp (Homo sapiens, UniProt P08183); assay: P-gp substrate accumulation assay (flow cytometry) in 12D7-MDR cells; type: cell-based; parameters: host or cells: 12D7-MDR cells (CD4+ T lymphocytes, kept under vincristine); conditions: for IC50: 12D7-MDR cells, 30 min, 1% DMSO
From the text: (§2) One of the goals of the designed TH heterodimers is to inhibit P-gp-mediated efflux. A substrate accumulation assay was used to evaluate the potency of Aba-S2-NFV1 and Aba-S2-DRV8 as P-gp inhibitors using the P-gp substrates calcein-AM and NBD-Aba.[38],[39] Two cell lines were used to monitor the accumulation of these fluorescent P-gp substrates: 12D7-MDR cells which are CD4+ T lymphocytes with overexpression of P-gp,[40] and hCMEC/D3 cells as an in vitro BBB model cell line.[41] hCMEC/D3 cells are an immortalized human brain capillary endothelial cell line that expresses endogenous levels of P-gp.[42],[43] Inhibition of P-gp efflux was measured by monitoring the increase in cellular fluorescence with added heterodimer by flow cytometry.
(§3) The growth of cells was maintained at 37 °C in 5% CO2. hCMEC/D3 cells were cultured according to literature protocols with minor modifications.[41]
(§4) Flow cytometry was used to estimate P-gp inhibition using a substrate accumulation assay as described previously with some minor changes.[38] […] The cells were harvested by centrifugation at 300g at 4 °C for 7 min. The supernatant was carefully removed, and 400 μL of cold, sterile PBS was added to the cell pellet. […] The mean fluorescence value for each concentration corresponded to 10 000 cells. Each sample was run in duplicate, and all the experiments were run in duplicates on two different days. The average fluorescence accumulated in the cells for samples was used to plot the mean fluorescence vs concentration, and the IC50 values were estimated using GraphPad Prism.

in vitro = type: cell-based; conditions: human
Description: An MTT assay was used to determine the cell toxicity of Aba-S2-NFV1 and Aba-S2-DRV8 in the 12D7-MDR cell lines after 24 h.[44]
The viability of 12D7-MDR cells in the presence of a TH heterodimer (Aba-S2-NFV1 or Aba-S2-DRV8) was measured using the standard MTT assay.[44] 20 000 12D7-MDR cells were plated in 96-well plate in 100 μL of cell medium. After 12 h, TH heterodimer in medium was added to each well to give a final concentration of 5, 10, and 20 μM (1% DMSO). After 24 h 20 μL of MTT in PBS (5 mg/mL) was added to all the wells and incubated for 2.5 h. The 96-well plates were centrifuged at 300g for 7 min, followed by careful removal of supernatant. 100 μL of DMSO was added to dissolve the formazan. The absorbance of the DMSO solution was read using a plate reader at 590 nm. Cell viability was reported as the ratio of absorbance of cells treated with TH heterodimer relative to cells treated with DMSO.

P-gp [4] = molecular target: T1, P-gp; assay: P-gp substrate accumulation assay (flow cytometry) in hCMEC/D3 cells; type: cell-based
From the text: as §2, §3, §4

[5] = Reversion of TH heterodimers into monomers in a reducing environment (DTT or GSH), UPLC-MS; type: physicochemical; conditions: ratio of t1/2 values (DTT)
Description: The breakdown of the TH heterodimers with DTT and glutathione (GSH) and the release of monomers were monitored using UPLC–MS at various time points. The reduction of the heterodimers to free thiols occurs rapidly, with full reduction observed within 1 h. Upon appearance of free thiols, the subsequent rearrangement led to the generation of the component monomeric drugs. […] This significant difference in monomer release is likely due to the differences in the chemical connectivity of the monomers. NFV, as described above, is connected to the tether via a phenolic moiety, whereas DRV is linked by a secondary alcohol. The better leaving group ability of the phenol versus the secondary alcohol likely leads to the observed difference in monomer regeneration.
Stability studies with DTT and GSH were adapted from a previously published protocol with some changes.[32] […] When monitoring NFV and DRV release, an aliquot of the reaction mixture was taken at different time points and directly analyzed by UPLC–MS. […] The time points were analyzed using RP-UPLC with a C18 column consisting of solvent A (water and 0.1% formic acid) and solvent B (acetonitrile and 0.1% formic acid), a gradient of 5–95% of solvent B over 10 min, and a flow rate of 0.5 mL/min. […]

[6] = NBD-Aba 5 μM, read-out: IC50, inhibition of P-gp mediated efflux of NBD-Aba
[7] = calcein-AM 0.25 μM, read-out: IC50, inhibition of P-gp mediated efflux of calcein-AM
[8] = NBD-Aba 5 μM, 30 min, 1% DMSO, read-out: IC50, inhibition of P-gp mediated efflux of NBD-Aba
[9] = calcein-AM 0.25 μM, 30 min, 1% DMSO, read-out: IC50, inhibition of P-gp mediated efflux of calcein-AM

T1 sequence (P08183 whole entry): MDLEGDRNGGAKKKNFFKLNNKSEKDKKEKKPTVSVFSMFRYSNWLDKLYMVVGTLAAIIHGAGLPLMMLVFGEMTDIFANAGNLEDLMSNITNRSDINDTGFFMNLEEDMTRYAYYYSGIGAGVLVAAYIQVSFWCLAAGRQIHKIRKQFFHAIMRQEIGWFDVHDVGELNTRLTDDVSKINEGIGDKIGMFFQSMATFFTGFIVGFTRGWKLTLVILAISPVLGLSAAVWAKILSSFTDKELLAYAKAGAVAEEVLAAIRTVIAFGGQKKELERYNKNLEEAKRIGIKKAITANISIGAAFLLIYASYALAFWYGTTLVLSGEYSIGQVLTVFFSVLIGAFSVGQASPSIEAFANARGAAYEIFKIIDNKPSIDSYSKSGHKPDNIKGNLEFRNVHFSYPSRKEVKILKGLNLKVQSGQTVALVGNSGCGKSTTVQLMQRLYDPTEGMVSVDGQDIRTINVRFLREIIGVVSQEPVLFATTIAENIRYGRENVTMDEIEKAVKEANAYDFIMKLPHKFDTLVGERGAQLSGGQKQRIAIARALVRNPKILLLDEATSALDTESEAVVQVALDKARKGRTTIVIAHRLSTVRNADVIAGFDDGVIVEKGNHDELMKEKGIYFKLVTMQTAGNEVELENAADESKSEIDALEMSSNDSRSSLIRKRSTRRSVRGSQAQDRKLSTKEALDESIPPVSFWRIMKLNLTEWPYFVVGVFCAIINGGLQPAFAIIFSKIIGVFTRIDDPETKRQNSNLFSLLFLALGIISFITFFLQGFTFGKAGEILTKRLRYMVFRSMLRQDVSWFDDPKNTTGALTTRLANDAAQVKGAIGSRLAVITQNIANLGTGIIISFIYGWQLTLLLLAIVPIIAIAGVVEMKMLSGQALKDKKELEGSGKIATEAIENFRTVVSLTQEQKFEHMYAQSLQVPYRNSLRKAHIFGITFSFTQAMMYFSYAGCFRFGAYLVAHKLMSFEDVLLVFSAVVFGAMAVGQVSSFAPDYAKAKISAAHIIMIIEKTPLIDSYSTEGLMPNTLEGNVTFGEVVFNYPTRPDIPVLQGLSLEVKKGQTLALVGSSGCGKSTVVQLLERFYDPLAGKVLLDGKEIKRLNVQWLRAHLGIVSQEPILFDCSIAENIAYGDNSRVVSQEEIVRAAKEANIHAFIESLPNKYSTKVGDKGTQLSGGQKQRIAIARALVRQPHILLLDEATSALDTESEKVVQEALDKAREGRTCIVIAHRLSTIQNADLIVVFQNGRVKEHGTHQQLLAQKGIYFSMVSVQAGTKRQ

Row | IC50 (P-gp [3]; [6]) | IC50 (P-gp [3]; [7]) | IC50 (P-gp [4]; [8]) | IC50 (P-gp [4]; [9]) | SMILES | anti-HIV-1 activity (HIV-1 p24 levels) (HIV-1LAI) | viability at 24 h, 20 µM (in vitro) | further results
1 |  |  |  |  | Nc1nc(NC2CC2)c2ncn([C@H]3C=C[C@@H](CO)C3)c2n1 [Aba, abacavir] |  |  | increase of brain accumulation in P-gp null mice as compared to wild-type mice (P-gp [1]; P-gp null mice vs wild-type mice): 20 fold
2 | 510 ± 80 nM | 500 ± 40 nM | 90 ± 20 nM | 80 ± 20 nM | CC(C)CN(C[C@@H](OC(=O)CCCSSCCCC(=O)OC[C@@H]1C=C[C@H](n2cnc3c(NC4CC4)nc(N)nc32)C1)[C@H](Cc1ccccc1)NC(=O)O[C@H]1CO[C@H]2OCC[C@H]21)S(=O)(=O)c1ccc(N)cc1 [Aba-S2-DRV8, abacavir-S2-darunavir-8] | less potent than the 1:1 mixture of Aba and DRV | 70% | stability of prodrug beyond 3 days [2]: decomposition observed after day 4; prodrug intact ([2]; after 3 days): greater than 95%; IC50 (P-gp [4]; calcein-AM and NBD-Aba substrates, read-out: IC50 values, inhibition of P-gp efflux): 80 to 90 nM
3 | 650 ± 90 nM | 770 ± 50 nM | 410 ± 60 nM | 590 ± 70 nM | Cc1c(OC(=O)CCCSSCCCC(=O)OC[C@@H]2C=C[C@H](n3cnc4c(NC5CC5)nc(N)nc43)C2)cccc1C(=O)N[C@@H](CSc1ccccc1)[C@H](O)CN1C[C@H]2CCCC[C@H]2C[C@H]1C(=O)NC(C)(C)C [Aba-S2-NFV1, abacavir-S2-nelfinavir-1] | superior potency as compared to Aba-S2-DRV8 | > 95% | prodrug intact ([2]; after 1 week): greater than 95%; fold increase in inhibition of P-gp as compared to the monomeric PI (NFV or DRV) (P-gp [3]; ratio of IC50 values of Table 1, 12D7-MDR and hCMEC/D3 cells, calcein-AM and NBD-Aba): 3- to 12 fold; fold faster release of NFV from Aba-S2-NFV1 than DRV release from Aba-S2-DRV8 [5]: 18 fold
4 |  |  |  |  | Cc1c(O)cccc1C(=O)N[C@@H](CSc1ccccc1)[C@H](O)CN1C[C@H]2CCCC[C@H]2C[C@H]1C(=O)NC(C)(C)C [NFV, nelfinavir] |  |  | increase of brain accumulation in P-gp null mice as compared to wild-type mice (P-gp [1]; mouse, not told): 36 fold

Row | SMILES | IC50 (P-gp [3]; [6]) | IC50 (P-gp [3]; [7]) | IC50 (P-gp [4]; [8]) | IC50 (P-gp [4]; [9]) | anti-HIV-1 activity (HIV-1 p24 levels) (HIV-1LAI) | viability at 24 h, 20 µM (in vitro) | further results
5 | CC(C)CN(C[C@@H](O)[C@H](Cc1ccccc1)NC(=O)O[C@H]1CO[C@H]2OCC[C@H]21)S(=O)(=O)c1ccc(N)cc1 [DRV, darunavir, reference compound] | 60000 ± 9400 nM | 33200 ± 6500 nM | 15400 ± 3200 nM | 6600 ± 1900 nM |  |  | 
